From paper PMC8401404 (Molecules, 2021)
Converted amounts (≈) assume the structure as drawn. Counter-ions that a name gives are not always drawn. Like-named read-outs stand apart in the source and are kept apart here.

Assays:
A549 [1] = experiment: BrdU proliferation assay, 2D cell culture; type: cell-based, human; details: Homo sapiens
Protocol: (§1) MTS assay gives us information about the number of living cells, in this case, metabolically active cells, whereas the BrdU proliferation assay gives a measure of the cell population in active division phase. Both assays were performed in 2D and 3D assay formats. For the 2D cell assay format, we used classic two-dimensional in vitro assays and as a 3D assay we used a hanging drop proliferation cell assay as previously described. We explored the activity of compounds on three human lung cancer cell lines, A549, HCC827 and NCI-H358. The compound activity was also tested on human lung fibroblast cell line MRC-5. A two-dimensional in vitro viability assay was performed on the MRC-5 cell line to see if tested compounds are cytotoxic on normal cell lines in low concentrations. […] 7.1.
(§2) Test compounds were synthesized by a research group at the Department of Organic Chemistry, Faculty of Chemical Engineering and Technology, University of Zagreb. […] Compounds were diluted 1:3. We transferred 500 nL (for 2D cell culture) or 400 nL (for 3D cell culture) of the compound from a mother plate to test plate by using Mosquito (TTP labtech). DMSO percentage in test concentrations was 0.5–1.0%. Starting concentration of the test compounds and standard compound doxorubicin was 50 µM (2D cell culture) or 100 µM (3D cell culture).
(§3) Cells were grown in 96-well cell star polystyrene plates. We seeded 10,000 cells/well in wells 4 h prior to the treatment with different compounds concentrations and incubated for 72 h. A cell viability assay was performed according to the manufacturer’s instructions, using CellTiter 96 aqueous solution, MTS kit (Promega, Madison, WI, USA). After 0.5–2 h of cell incubation with MTS in 2D cell culture, the plates were read using PE EnVision absorbance at 490 nm.
(§4) Proliferation assay was performed using Cell Proliferation ELISA, BrdU (Sigma, St. Louis, MO, USA). Briefly, 48 h hours after compound addition, 10 µM of BrdU was added to each well and incubated for the following 24 h. After incubation, a single cell suspension was made for 3D cell culture in the new 96-well plate. Plates were centrifuged and supernatants were removed from each plate (for 2D and 3D cell culture) followed by 60 min incubation at 60 °C. The rest of the proliferation assay was performed according to the manufacturer’s instructions.
(§5) Calculation of IC50 data, curves and QC analysis was performed by using Excel tools and GraphPadPrism software (La Jolla, CA, USA), v. […] QC criteria parameters (Z’, S:B, R2, HillSlope) were checked for every IC50 curve.

HCC827 [2] = experiment: BrdU proliferation assay, 2D cell culture; type: cell-based, human; details: Homo sapiens
Protocol: as §1, §2, §3, §4, §5

NCI-H358 [3] = experiment: BrdU proliferation assay, 2D cell culture; type: cell-based, human; details: Homo sapiens, NCI-H358, 2D, n = 2, read-out: Proliferation Assay IC50 ± SD
Protocol: as §1, §2, §3, §4, §5

[4] = MTS cytotoxicity assay, 2D cell culture, normal lung fibroblasts; details: human
Protocol: as §1, §2, §3, §5

E. coli ATCC 25922 = experiment: Broth microdilution testing (CLSI); type: cell-based, Escherichia coli
Protocol: (§6) Broth microdilution testing was performed according to CLSI (Clinical Laboratory Standards Institute) guidelines. MIC (minimal inhibitory concentration) value was defined as the last tested concentration of compound at which there is no visible growth of bacteria. […] Clinical and Laboratory Standards Institute (CLSI) guidelines.

A549 [5] = experiment: MTS cytotoxicity assay, 2D cell culture; details: Homo sapiens, A549, 72 h, read-out: Cytotoxicity Assay IC50 ± SD, A549 2D
Protocol: as §1, §2, §3, §5

HCC827 [6] = experiment: MTS cytotoxicity assay, 2D cell culture; details: Homo sapiens, HCC827, 72 h, read-out: Cytotoxicity Assay IC50 ± SD; HCC827 2D
Protocol: as §1, §2, §3, §5

NCI-H358 [7] = experiment: MTS cytotoxicity assay, 2D cell culture; details: Homo sapiens, NCI-H358, 72 h, read-out: Cytotoxicity Assay IC50 ± SD; NCI-H358 2D
Protocol: as §1, §2, §3, §5

A549 [8] = experiment: BrdU proliferation assay, 3D hanging drop cell culture; type: cell-based, human; details: Homo sapiens
Protocol: as §1, §2
(§7) Cells were grown in 96-well Perfecta 3D hanging drop plates 5000 cell/well for 4 days until spheres were formed (and checked under the microscope). After sphere formation cells were treated with compounds followed by 72 h incubation. Cell viability assay was performed according to the manufacturer’s instructions, using CellTiter GLO 3D for 3D cell culture (Promega); cell incubation was 5 min on the shaker followed by 25 min incubation in the dark. Plates were read using PE EnVision luminescence.
as §4, §5

HCC827 [9] = experiment: as above; type: cell-based, human; details: Homo sapiens
Protocol: as §1, §2, §7, §4, §5

NCI-H358 [10] = experiment: as above; type: cell-based, human; details: Homo sapiens, NCI-H358, 3D, n = 2, read-out: Proliferation Assay IC50 ± SD
Protocol: as §1, §2, §7, §4, §5

A549 [11] = experiment: Cytotoxicity (viability) assay, 3D hanging drop cell culture; details: Homo sapiens, A549, 72 h, read-out: Cytotoxicity Assay IC50 ± SD; A549 3D
Protocol: as §1, §2, §7, §5

HCC827 [12] = experiment: as above; details: Homo sapiens, HCC827, 72 h, read-out: Cytotoxicity Assay IC50 ± SD; HCC827 3D
Protocol: as §1, §2, §7, §5

NCI-H358 [13] = experiment: as above; details: Homo sapiens, NCI-H358, 72 h, read-out: Cytotoxicity Assay IC50 ± SD; NCI-H358 3D
Protocol: as §1, §2, §7, §5

S. aureus ATCC 29213 = experiment: Broth microdilution testing (CLSI); type: cell-based, Staphylococcus aureus
Protocol: as §6

S. cerevisiae ATCC 7752 = experiment: Broth microdilution testing (CLSI); type: cell-based, Saccharomyces cerevisiae
Protocol: as §6

[14] = A549, read-out: Proliferation Assay IC50 ± SD, A549 2D
[15] = HCC827, read-out: Proliferation Assay IC50 ± SD, HCC827 2D
[16] = A549, read-out: Proliferation Assay IC50 ± SD, A549 3D
[17] = HCC827, read-out: Proliferation Assay IC50 ± SD, HCC827 3D
[18] = A549, 2D, BrdU, n = 2, read-out: Proliferation Assay IC50 ± SD
[19] = A549, 3D, BrdU, n = 2, read-out: Proliferation Assay IC50 ± SD
[20] = Escherichia coli, ATCC25922, broth microdilution, 16–24h at 37 °C, read-out: MIC E. coli ATCC 25922
[21] = Staphylococcus aureus, ATCC29213, broth microdilution, 16–24h at 37 °C, read-out: MIC S. aureus ATCC 29213
[22] = Saccharomyces cerevisiae, ATCC7752, broth microdilution, 16–24h at 37 °C, read-out: MIC S. cerevisiae ATCC 7752

Compound: CC(C)NC(=N)c1ccc2[nH]c(-c3ccc(-c4ccc(Cl)cc4)o3)nc2c1 (as salt: hydrochloride) [Compound 14, 2-[5-(4-Chlorophenyl)furan-2-yl]-5(6)-isopropilamidinobenzimidazole hydrochloride]
- melting point: 242 to 246 °C

Compound: N#C/C(=C\c1ccc(-c2ccc(Cl)cc2)o1)c1nc2ccccc2s1 [Compound 22, (E)-2-(Benzothiazol-2-yl)-3-[5-(4-chlorophenyl)furan-2-yl]acrylonitrile]
- IC50 (A549 [1]; [14]): > 50000 nM
- IC50 (HCC827 [2]; [15]): > 50000 nM
- IC50 (NCI-H358 [3]): > 50000 nM
- IC50 at 72 h [4]: > 50000 nM
- MIC (E. coli ATCC 25922; Escherichia coli, ATCC25922, read-out: MIC E. coli ATCC 25922): > 100 µM
- IC50 (A549 [5]): > 50000 nM
- IC50 (HCC827 [6]): > 50000 nM
- IC50 (NCI-H358 [7]): > 50000 nM
- IC50 (A549 [8]; [16]): > 100000 nM
- IC50 (HCC827 [9]; [17]): > 100000 nM
- IC50 (NCI-H358 [10]): > 100000 nM
- IC50 (A549 [11]): > 100000 nM
- IC50 (HCC827 [12]): > 100000 nM
- IC50 (NCI-H358 [13]): > 100000 nM
- MIC (S. aureus ATCC 29213; Staphylococcus aureus, ATCC29213, read-out: MIC S. aureus ATCC 29213): > 100 µM
- MIC (S. cerevisiae ATCC 7752; Saccharomyces cerevisiae, ATCC7752, read-out: MIC S. cerevisiae ATCC 7752): > 100 µM

Compound: COc1cccc2c1C(=O)c1c(O)c3c(c(O)c1C2=O)C[C@@](O)(C(=O)CO)C[C@@H]3O[C@H]1C[C@H](N)[C@H](O)[C@H](C)O1 [Doxorubicin, reference compound]
- IC50 (A549 [1]; [18]): 130 ± 10 nM
- IC50 (HCC827 [2]; HCC827, 2D, BrdU, n = 2, read-out: Proliferation Assay IC50 ± SD): 250 ± 280 nM
- IC50 (NCI-H358 [3]): 70 ± 40 nM
- IC50 at 72 h [4]: 600 ± 10 nM
- IC50 (A549 [5]; 72 h, MTS, n = 2): 1310 ± 110 nM
- IC50 (HCC827 [6]): 320 ± 30 nM
- IC50 (NCI-H358 [7]): 150 ± 60 nM
- IC50 (A549 [8]; [19]): 480 ± 30 nM
- IC50 (HCC827 [9]; HCC827, 3D, BrdU, n = 2, read-out: Proliferation Assay IC50 ± SD): 1890 ± 2300 nM
- IC50 (NCI-H358 [10]): 2300 ± 1910 nM
- IC50 (A549 [11]): 5860 ± 1100 nM
- IC50 (HCC827 [12]): 1470 ± 120 nM
- IC50 (NCI-H358 [13]): 990 ± 150 nM

Compound: CC(C)NC(=N)c1ccc2[nH]c(-c3ccc(-c4ccc([N+](=O)[O-])cc4)o3)nc2c1 (as salt: hydrochloride) [Compound 11, 2-[5-(4-Nitrophenyl)furan-2-yl]-5(6)-N-isopropilamidinobenzimidazole hydrochloride]
- melting point: > 270 °C

Compound: C[C@@H](c1ncncc1F)[C@](O)(Cn1cncn1)c1ccc(F)cc1F [Voriconazole, reference compound]
- MIC (E. coli ATCC 25922; [20]): > 64 µM
- MIC (S. aureus ATCC 29213; [21]): > 64 µM
- MIC (S. cerevisiae ATCC 7752; [22]): < 0.125 µM

Compound: O=[N+]([O-])c1ccc(-c2ccc(-c3nc4cc(C5=NCCN5)ccc4[nH]3)o2)cc1 (as salt: hydrochloride) [Compound 12, 5(6)-(4,5-Dihydro-1H-imidazol-2-yl)-2-[5-(4-nitrophenyl)furan-2-yl]benzimidazole hydrochloride]
- melting point: > 270 °C

Compound: COc1cc2c(Nc3ccc(Br)cc3F)ncnc2cc1OCC1CCN(C)CC1 [Vandetanib, reference compound]
- IC50 (A549 [1]; [18]): > 25000 nM
- IC50 (HCC827 [2]; [15]): 200 ± 110 nM
- IC50 (NCI-H358 [3]): > 25000 nM
- IC50 at 72 h ([4]; MRC-5 normal lung fibroblasts, 2D culture): 11100 nM
- IC50 (A549 [5]; 72 h, MTS, n = 2): > 25000 nM
- IC50 (HCC827 [6]): 580 ± 30 nM
- IC50 (NCI-H358 [7]): 3120 nM
- IC50 (A549 [8]; [19]): > 50000 nM
- IC50 (HCC827 [9]; [17]): 80 ± 20 nM
- IC50 (NCI-H358 [10]): 380 ± 170 nM
- IC50 (A549 [11]): > 50000 nM
- IC50 (HCC827 [12]): 160 ± 40 nM
- IC50 (NCI-H358 [13]): 380 ± 200 nM

Compound: CC(C)NC(=N)c1ccc2nc(-c3ccc(-c4ccc([N+](=O)[O-])cc4)o3)sc2c1 (as salt: hydrochloride) [Compound 5, 2-[5-(4-Nitrophenyl)furan-2-yl]-6-N-isopropilamidinobenzothiazole hydrochloride]
- melting point: 201 to 206 °C

Compound: CC1(C)S[C@@H]2[C@H](NC(=O)[C@H](N)c3ccccc3)C(=O)N2[C@H]1C(=O)O [Ampicillin, reference compound]
- MIC (E. coli ATCC 25922; [20]): 4 µM (≈ 1.4 µg/mL)
- MIC (S. aureus ATCC 29213; [21]): 2 µM (≈ 0.699 µg/mL)
- MIC (S. cerevisiae ATCC 7752; [22]): > 64 µM

Compound: CN[C@@H]1C[C@H]2O[C@@](C)([C@@H]1OC)n1c3ccccc3c3c4c(c5c6ccccc6n2c5c31)C(=O)NC4 [Staurosporine, reference compound]
- IC50 (A549 [1]; [14]): 35 ± 17 nM
- IC50 (HCC827 [2]; [15]): 4 ± 2 nM
- IC50 at 72 h [4]: 31 ± 11 nM
- IC50 (HCC827 [6]): 33 ± 2 nM
- IC50 (A549 [8]; [16]): 110 ± 1 nM

Compound: CC(C)NC(=N)c1ccc2nc(-c3ccc(-c4ccc(Cl)cc4)o3)sc2c1 (as salt: hydrochloride) [Compound 8, 2-[5-(4-Chlorophenyl)furan-2-yl]-6-N-isopropilamidinobenzothiazole hydrochloride]
- melting point: 204 to 208 °C

Compound: Gentamycin [reference compound]
- MIC (E. coli ATCC 25922; broth microdilution, 16–24h at 37 °C, read-out: MIC E. coli ATCC 25922): 0.5 µM
- MIC (S. aureus ATCC 29213; broth microdilution, 16–24h at 37 °C, read-out: MIC S. aureus ATCC 29213): 0.25 µM
- MIC (S. cerevisiae ATCC 7752; broth microdilution, 16–24h at 37 °C, read-out: MIC S. cerevisiae ATCC 7752): >64 µM

Compound: CC(C)(O/N=C(\C(=O)N[C@@H]1C(=O)N2C(C(=O)[O-])=C(C[n+]3ccccc3)CS[C@H]12)c1csc(N)n1)C(=O)O [Ceftazidime, reference compound]
- MIC (E. coli ATCC 25922; [20]): < 0.125 µM
- MIC (S. aureus ATCC 29213; [21]): 16 µM (≈ 8.75 µg/mL)
- MIC (S. cerevisiae ATCC 7752; [22]): > 64 µM
